Data reported in patent publication US20230257366A1, “SULFUR-CONTAINING ISOINDOLINE DERIVATIVE, AND PREPARATION METHOD THEREFOR AND MEDICAL USE THEREOF” (JIANGSU HENGRUI PHARMACEUTICALS CO., LTD., priority 2020, published 2023).

These compounds were tested on NCI-H929 cells (assay: NCI-H929 proliferation experiment (CellTiter-Glo, 5 days)). Details: Homo sapiens, 120 h, 5 days incubation, read-out: IC50 values for the inhibition of proliferation of NCI-H929 cells.
Type: cell-based
Method: The following method was used to determine the inhibitory activity of the compounds of the present disclosure on the proliferation of NCI-H929 cells. The experimental method was briefly described as follows.
NCI-H929 cells (ATCC, CRL-9068) were cultured in a complete medium (RPMI 1640 medium (Hyclone, SH30809.01) containing 10% fetal bovine serum (Corning, 35-076-CV) and 0.05 mM 2-mercaptoethanol (Sigma, M3148)). On the first day of the experiment, NCI-H929 cells were seeded in a 96-well plate at a density of 6000 cells/well with a complete medium to form 100 μL of cell suspension per well, and 10 μL of test compound prepared in a complete medium and diluted in a gradient was added to each well. The compound was firstly dissolved in DMSO, with an initial concentration of 10 mM, and then subjected to serial dilution at a 5-fold concentration gradient for a total of 9 concentration points, with a blank control of 100% DMSO. Another 5 μL of the compound dissolved in DMSO was added to 95 μL of complete medium, i.e., the compound was diluted 20-fold with the complete medium. Finally the compound diluted in the complete medium at 10 μL/well was added to the cell suspension, wherein the final concentrations of the compound were 9 concentration points obtained by 5-fold gradient dilution starting from 50 μM. A blank control containing 0.5% DMSO was set. The plate was incubated in a cell incubator at 37° C. with 5% CO2 for 5 days. On the sixth day, the 96-well cell culture plate was taken out, added with a CellTiter-Glo® luminescent cell activity detect reagent (Promega, G7573) at 50 μL/well, left to stand at room temperature for 10 min, and read for the luminescence signal values using a multi-mode microplate reader (PerkinElmer, EnVision 2015). IC50 values for the inhibitory activity of the compounds were calculated using Graphpad Prism software, with the results shown in Table 1.
An IC50 of 0.34 nM was found for `N#Cc1ccc(N2CCC(Sc3cc(F)c(COc4cccc5c4CN([C@H]4CCC(=O)NC4=O)C5=O)c(F)c3)CC2)c(F)c1` [Compound 18, (S)-4-(4-((4-(((2-(2,6-dioxopiperidin-3-yl)-1-oxoisoindolin-4-yl)oxy)methyl)-3,5-difluorophenyl)thio)piperidin-1-yl)-3-fluorobenzonitrile] in this work.
An IC50 of 1.78 nM was found for `Cc1nc(SC2CCN(c3ccc(C#N)cc3F)CC2)ccc1COc1cccc2c1CN([C@H]1CCC(=O)NC1=O)C2=O` [Compound 13, (S)-4-(4-((5-(((2-(2,6-dioxopiperidin-3-yl)-1-oxoisoindolin-4-yl)oxy)methyl)-6-methylpyridin-2-yl)thio)piperidin-1-yl)-3-fluorobenzonitrile] in this work.
An IC50 of 0.75 nM was found for `N#Cc1ccc(N2CCC(Sc3ccc(COc4cccc5c4CN([C@H]4CCC(=O)NC4=O)C5=O)cn3)C2)c(F)c1` (stereo partly drawn) [Compound 15, 4-(3-((5-(((2-((S)-2,6-dioxopiperidin-3-yl)-1-oxoisoindolin-4-yl)oxy)methyl)pyridin-2-yl)thio)pyrrolidin-1-yl)-3-fluorobenzonitrile] in this work.
An IC50 of 0.61 nM was found for `N#Cc1ccc(N2CCC(Sc3c(F)cc(COc4cccc5c4CN([C@H]4CCC(=O)NC4=O)C5=O)cc3F)CC2)c(F)c1` [Compound 12, (S)-4-(4-((4-(((2-(2,6-dioxopiperidin-3-yl)-1-oxoisoindolin-4-yl)oxy)methyl)-2,6-difluorophenyl)thio)piperidin-1-yl)-3-fluorobenzonitrile] in this work.
An IC50 of 1.13 nM was found for `N#Cc1ccc(N2CC(Sc3ccc(COc4cccc5c4CN([C@H]4CCC(=O)NC4=O)C5=O)cc3)C2)c(F)c1` [Compound 16, (S)-4-(3-((4-(((2-(2,6-dioxopiperidin-3-yl)-1-oxoisoindolin-4-yl)oxy)methyl)phenyl)thio)azetidin-1-yl)-3-fluorobenzonitrile] in this work.
An IC50 of 0.9 nM was found for `N#Cc1ccc(N2CCC(Sc3ccc(COc4cccc5c4CN([C@H]4CCC(=O)NC4=O)C5=O)nc3)CC2)c(F)c1` [Compound 9, (S)-4-(4-((6-(((2-(2,6-dioxopiperidin-3-yl)-1-oxoisoindolin-4-yl)oxy)methyl)pyridin-3-yl)thio)piperidin-1-yl)-3-fluorobenzonitrile] in this work.
An IC50 of 0.34 nM was found for `N#Cc1ccc(N2CCC(Sc3ccc(COc4cccc5c4CN(C4CCC(=O)NC4=O)C5=O)cc3)CC2)c(F)c1` (centres unmarked) [Compound 1, 4-(4-((4-(((2-(2,6-dioxopiperidin-3-yl)-1-oxoisoindolin-4-yl)oxy)methyl)phenyl)thio)piperidin-1-yl)-3-fluorobenzonitrile] in this work.
An IC50 of 0.18 nM was found for `N#Cc1ccc(N2CCC(Sc3ccc(COc4cccc5c4CN([C@H]4CCC(=O)NC4=O)C5=O)c(F)c3F)CC2)c(F)c1` [Compound 10, (S)-4-(4-((4-(((2-(2,6-dioxopiperidin-3-yl)-1-oxoisoindolin-4-yl)oxy)methyl)-2,3-difluorophenyl)thio)piperidin-1-yl)-3-fluorobenzonitrile] in this work.
An IC50 of 0.21 nM was found for `N#Cc1ccc(N2CCC(Sc3ccc(COc4cccc5c4CN([C@H]4CCC(=O)NC4=O)C5=O)c(F)n3)CC2)c(F)c1` [Compound 17, (S)-4-(4-((5-(((2-(2,6-dioxopiperidin-3-yl)-1-oxoisoindolin-4-yl)oxy)methyl)-6-fluoropyridin-2-yl)thio)piperidin-1-yl)-3-fluorobenzonitrile] in this work.
An IC50 of 0.13 nM was found for `N#Cc1ccc(N2CCC(Sc3ncc(COc4cccc5c4CN([C@H]4CCC(=O)NC4=O)C5=O)cn3)CC2)c(F)c1` [Compound 7, (S)-4-(4-((5-(((2-(2,6-dioxopiperidin-3-yl)-1-oxoisoindolin-4-yl)oxy)methyl)pyrimidin-2-yl)thio)piperidin-1-yl)-3-fluorobenzonitrile] in this work.
An IC50 of 0.08 nM was found for `N#Cc1ccc(N2CCC(Sc3ccc(COc4cccc5c4CN([C@H]4CCC(=O)NC4=O)C5=O)c(F)c3)CC2)c(F)c1` [Compound 5, (S)-4-(4-((4-(((2-(2,6-dioxopiperidin-3-yl)-1-oxoisoindolin-4-yl)oxy)methyl)-3-fluorophenyl)thio)piperidin-1-yl)-3-fluorobenzonitrile] in this work.
